According to patent US20210138077A1, “SELECTIVE DRUG RELEASE FROM INTERNALIZED CONJUGATES OF BIOLOGICALLY ACTIVE COMPOUNDS” (Seagen Inc., priority 2019, published 2021):
Non-standard residues stand in square brackets, D forms with d. No end group written: not given here. Met(O) = CS(=O)CC[C@H](N)C(=O)O; Cit = NC(=O)NCCC[C@H](N)C(=O)O

Columns and labels:
[1] = system: tumor tissue homogenates derived from four mouse xenograft models (HPAF-II, Ramos, SK-Mel-5, SU-DHL-4); experiment: Fluorescence assay of tripeptide library: proteolysis by tumor tissue homogenate; assay type: biochemical; settings: for Normalized Tumor Tissue / Normalized Tumor: normalized fluorescence; for Normalized Tumor Tissue: averaged across 4 tumor homogenates (HPAF-II, Ramos, SK-Mel-5, SU-DHL-4); for Normalized Tumor: averaged across 4 tumor homogenates
Description: (§1) Fluorescence assay. To a 384 well plate was added a mixture of tumor or normal tissue homogenate and citrate buffer (100 mM, pH 4.5; 9 μL) followed by a fluorescently labelled library compound (1 μL; dissolved in 50% MeCN). The reaction was incubated at 37° C. and fluorescence (330 nm excitation, 450 nm emission) was detected several times over a 6-hr. period. The fluorescence fold change was determined by dividing the fluorescence value at each time point with the background fluorescence when no homogenate was added.
(§2) Tissue Homogenization. Normal tissue or tumor tissue from mouse xenografts were suspended in buffer (50 mM Tris, 150 mM KCl, pH 7.0) and added to a tube containing Matrix D lysing beads (mpbio). The tissue was homogenized with a Precellys™ 24 homogenizer. The homogenized sample was centrifuged at 1000×g for 10 min and the resulting supernatant was collected then frozen at −80° C. until further use.
(§3) The library members were synthesized on cellulose support according to the method by Hilpert, K. et al. in “Peptide arrays on cellulose support: SPOT synthesis, a time and cost efficient method for synthesis of large numbers of peptides in a parallel and addressable fashion”, Nature Protocols (2007) 2(6): 1333-1349, the method of which is specifically incorporated by reference herein, with one important modification. That modification uses laser-perforated cellulose paper so that synthesis of each library member occurs with a clearly defined circular disc. After SPOT synthesis, each circular area, which separately contains a discrete library member, is punched out by a multichannel pipette into individual wells of a microtiter plate. The microtiter plate is then placed into an ammonia chamber to cleave the tripeptide containing model compounds from the cellulose discs. The cleaved compounds were then transferred to a fresh microtiter plate after solubilizing each into 50% aqueous acetonitrile. The contents of the wells were then assessed for susceptibility to proteolysis by tumor tissue homogenate in comparison to a comparator peptide-based drug linker compound having the dipeptide val-cit, which is replaced by the -[P1]-[P2]-[P3]-tripeptides in the library of drug linker compounds, by measuring the fluorescence found in each of the wells of the library after contacting with tumor or normal tissue homogenate and dividing it by the fluorescence found for tumor or normal tissue homogenate cleavage of the comparator dipeptide-containing drug linker compound.
The normalized fluorescence value for tumor homogenate proteolysis is an averaged value for tumor tissue homogenates derived from four mouse xenograft models. Calculation of those normalized values are described following Table 1A.
(§4) A normalized fluorescence value is calculated by dividing the fluorescence value at the final time point (275-315 min) from addition of a tissue homogenate by the fluorescence value when no tissue homogenate was added. That value was then normalized for each peptide in each homogenate by dividing it by the average value for that homogenate. […] The normalized tumor tissue values of Table 1 were then determined by averaging the normalized fluorescence value for each peptide across all 4 cancer homogenates that were tested. Those tumor homogenates were derived from xenograft models for HPAF-II (Nude mouse), Ramos (SCID mouse), SK-Mel-5 (Nude mouse) and SU-DHL-4 (SCID mouse). The normalized normal tissue values of Table 1 were similarly calculated using homogenized bone marrow. The Tumor/Normal ratios of Table 1A were determined by dividing the normalized tumor tissue values by the normalized normal tissue values.

[2] = system: normal human bone marrow homogenate; experiment: Fluorescence assay of tripeptide library: proteolysis by normal tissue homogenate; assay type: biochemical; settings: for Normalized Normal Tissue: Table 1A, normalized fluorescence fold change at final time point (275-315 min), pH 4.5, 37° C.; for Normalized Normal: Table 1B, normalized fluorescence
Description: as §1, §2, §3
The normalized normal tissue fluorescence values are from proteolysis by normal human bone marrow. Human bone marrow was chosen as the normal tissue because it is the site of an adverse event (neutropenia) that has been associated with administering to a human subject in need thereof an effective amount of an Antibody Drug Conjugate having drug linker moieties derived from the Drug Linker compound m-val-cit-PABC-MMAE.
as §4

[3] = Table 1A, normalized tumor tissue value divided by normalized normal tissue value
[4] = Table 1B, normalized tumor value divided by normalized normal value

Substance	Normalized Tumor Tissue ([1]; Table 1A)	Tumor/Normal [1, 3]	Normalized Normal Tissue [2]	Normalized Tumor ([1]; Table 1B)	Tumor/Normal [1, 4]	Normalized Normal [2]
Pro-[Cit]-Glu	2.27	2.68	0.85	–	–	–
[dL]-Ala-Lys	–	–	–	1.16	1.70	0.68
[dL]-[Cit]-Glu	–	–	–	1.07	1.67	0.64
DLeu-Leu-Cit	3.70	2.70	1.37	–	–	–
Pro-Lys-Glu	1.88	2.59	0.72	–	–	–
[dL]-Leu-Lys	2.20	2.54	0.87	–	–	–
Pro-Ala-[Cit]	3.03	2.84	1.07	–	–	–
Pro-Glu-Lys	1.85	2.57	0.72	–	–	–
Cit-Cit-Cit	2.82	2.52	1.12	–	–	–
Pro-Cit-Cit	2.54	2.67	0.95	–	–	–
Ala-Cit-Cit	2.58	2.53	1.02	–	–	–
Pro-Ala-Glu	2.48	3.16	0.78	–	–	–
[dL]-Leu-[Met(O)]	1.70	2.58	0.66	1.70	2.58	0.66
Thr-Cit-Cit	2.26	2.53	0.89	–	–	–
Glu-Ala-Glu	2.66	2.53	1.05	–	–	–
Pro-Glu-Ala	–	–	–	1.28	1.84	0.70
[dL]-Leu-Glu	3.45	3.09	1.12	–	–	–
Pro-Glu-Glu	1.87	2.58	0.73	–	–	–
Pro-Glu-[Cit]	2.35	2.77	0.85	–	–	–
[dL]-Glu-Lys	–	–	–	1.06	1.71	0.62
Cit-Glu-Cit	3.16	2.61	1.21	–	–	–
[dL]-Phe-Glu	2.27	2.55	0.89	–	–	–
Glu-Glu-[Cit]	3.14	2.57	1.22	–	–	–
[Cit]-Glu-Glu	2.44	2.53	0.97	–	–	–
Lys-Glu-[Met(O)]	–	–	–	1.16	1.66	0.70
